Measurements from patent US7407670B2, “Solid dispersions comprising two different polymer matrixes” (Janssen Pharmaceutica, N.V., priority 2002, dated 2008).

Assay: Solubility of itraconazole in polymer solutions at 298K
Format: physicochemical
Settings: eudragit E100 solution versus PVPVA64 solution
From the text: FIG. 10: Solubility of itraconazole in different concentration of polymer solutions at 298K in eudragit E100 (open bars) and PVPVA64 (closed bars).

solubility in polymer solution (comparison in words): much higher in eudragit E100 solution
SMILES: CCC(C)n1ncn(-c2ccc(N3CCN(c4ccc(OCC5COC(Cn6cncn6)(c6ccc(Cl)cc6Cl)O5)cc4)CC3)cc2)c1=O (stereo not shown) [itraconazole, Itraconazole]
